Source: patent US9556183B2, “Substituted pyrazolylpyrazole derivative and use of same as herbicide” (KYOYU AGRI CO., LTD., priority 2013, dated 2017)

Columns and labels:
Assay type in all cases: in vivo
Echinochloa crus-galli = experiment: Paddy herbicidal activity test; settings: irrigated paddy pot, treated at 3.5 leaf stage of Echinochloa crus-galli, 30 days
Experimental: (§1) Rice paddy soil was filled into a 1/10000 are pot followed by the addition of suitable amounts of water and chemical fertilizer, kneading, seeding with Echinochloa crus-galli, Monochoria vaginalis and Scirpus juncoides and maintaining in an irrigated state at a water depth of 3 cm. Wettable powder of Target Compound (I) shown in Table 1 prepared in compliance with the preparation examples were diluted with a suitable amount of water, rice plants in the 2.0 leaf stage were transplanted during 3.5 leaf stage of Echinochloa crus-galli, and treated by dropping in chemical in the prescribed amount per are using a pipette. After treating for 30 days in a glass greenhouse at an average atmospheric temperature of 30° C., the herbicidal efficacy thereof was investigated. Evaluation of herbicidal efficacy was carried out by comparing growth inhibition rate (%) with an untreated group, while evaluation of phytotoxicity was carried out by comparing growth inhibition rate (%) with the state of a complete eradication group, and were evaluated at 11 levels indicated below. [table]

Monochoria vaginalis = experiment: Paddy herbicidal activity test; settings: irrigated paddy pot, 30 days
Experimental: as §1

Scirpus juncoides = experiment: Paddy herbicidal activity test; settings: irrigated paddy pot, 30 days
Experimental: as §1

Rice plants = experiment: Paddy herbicidal activity test, phytotoxicity to transplanted rice; settings: rice transplanted at 2.0 leaf stage, 30 days
Experimental: as §1

| SMILES | herbicidal efficacy (growth inhibition rate level) Echinochloa crus-galli (Echinochloa crus-galli; 1g a.i./10a) | herbicidal efficacy (growth inhibition rate level) Echinochloa crus-galli (Echinochloa crus-galli; 5g a.i./10a) | herbicidal efficacy (growth inhibition rate level) Monochoria vaginalis (Monochoria vaginalis; 1g a.i./10a) | herbicidal efficacy (growth inhibition rate level) Monochoria vaginalis (Monochoria vaginalis; 5g a.i./10a) | herbicidal efficacy (growth inhibition rate level) Scirpus juncoides (Scirpus juncoides; 1g a.i./10a) | herbicidal efficacy (growth inhibition rate level) Scirpus juncoides (Scirpus juncoides; 5g a.i./10a) | phytotoxicity (growth inhibition rate level) Rice plants (Rice plants; 1g a.i./10a) | phytotoxicity (growth inhibition rate level) Rice plants (Rice plants; 5g a.i./10a) |
| --- | --- | --- | --- | --- | --- | --- | --- | --- |
| N#Cc1cnn(-c2nn3c(c2Cl)CCCC3)c1N(CC1CC1)C(=O)C(F)(F)C(F)(F)F [Compound 3] | 8 (8: 80% to less than 90%) | 8 (8: 80% to less than 90%) | 7 (7: 70% to less than 80%) | 7 (7: 70% to less than 80%) | 7 (7: 70% to less than 80%) | 8 (8: 80% to less than 90%) | 0 (0 (exponent): 0% to less than 10% (growth inhibition rate)) | 0 (0 (exponent): 0% to less than 10% (growth inhibition rate)) |
| CC1(CNc2c(C#N)cnn2-c2nn3c(c2Cl)CCCC3)CC1 [Compound 4] | 9 (9: 90% to less than 100%) | 10 (10: 100%) | 9 (9: 90% to less than 100%) | 9 (9: 90% to less than 100%) | 8 (8: 80% to less than 90%) | 8 (8: 80% to less than 90%) | 0 (0 (exponent): 0% to less than 10% (growth inhibition rate)) | 1 (1: 10% to less than 20%) |
| N#Cc1cnn(-c2nn3c(c2Cl)CCC3)c1NCC1CC1 [Compound 5] | 9 (9: 90% to less than 100%) | 10 (10: 100%) | 9 (9: 90% to less than 100%) | 9 (9: 90% to less than 100%) | 8 (8: 80% to less than 90%) | 9 (9: 90% to less than 100%) | 0 (0 (exponent): 0% to less than 10% (growth inhibition rate)) | 1 (1: 10% to less than 20%) |
| N#Cc1cnn(-c2nn3c(c2Cl)CCC3)c1N(CC1CC1)C(=O)C(F)(F)F [Compound 6] | 9 (9: 90% to less than 100%) | 9 (9: 90% to less than 100%) | 8 (8: 80% to less than 90%) | 9 (9: 90% to less than 100%) | 7 (7: 70% to less than 80%) | 8 (8: 80% to less than 90%) | 0 (0 (exponent): 0% to less than 10% (growth inhibition rate)) | 0 (0 (exponent): 0% to less than 10% (growth inhibition rate)) |
| CC(Nc1c(C#N)cnn1-c1nn2c(c1Cl)CCCC2)C1(C)CC1 (stereo not shown) [Compound 8] | 9 (9: 90% to less than 100%) | 9 (9: 90% to less than 100%) | 7 (7: 70% to less than 80%) | 7 (7: 70% to less than 80%) | 7 (7: 70% to less than 80%) | 8 (8: 80% to less than 90%) | 0 (0 (exponent): 0% to less than 10% (growth inhibition rate)) | 0 (0 (exponent): 0% to less than 10% (growth inhibition rate)) |
